In BindingDB's records for doi:10.1021/jm048962u (The Burnham Institute, 2005):

Molecular target: RAC-alpha serine/threonine-protein kinase (Homo sapiens, UniProt P31749)
Experiment: Z-LYTE Kinase Assy
Conditions: pH 7.5; 25 °C
Text: The Z-LYTE assay (Invitrogen Corporation) employs a FRET-based, coupled-enzyme format and is based on the differential sensitivity of phosphorylated and non-phosphorylated peptides to proteolytic cleavage. A site-specific protease recognizes and cleaves nonphosphorylated peptides. […] Cleavage disrupts FRET between the donor (coumarin) and acceptor (fluorescein) fluorophores on the peptide, whereas uncleaved, phosphorylated peptides maintain FRET. The ratio of donor emission to acceptor emission after excitation of the donor fluorophore at 400 nm, quantitates reaction progress.

Chain of RAC-alpha serine/threonine-protein kinase (P31749 whole entry): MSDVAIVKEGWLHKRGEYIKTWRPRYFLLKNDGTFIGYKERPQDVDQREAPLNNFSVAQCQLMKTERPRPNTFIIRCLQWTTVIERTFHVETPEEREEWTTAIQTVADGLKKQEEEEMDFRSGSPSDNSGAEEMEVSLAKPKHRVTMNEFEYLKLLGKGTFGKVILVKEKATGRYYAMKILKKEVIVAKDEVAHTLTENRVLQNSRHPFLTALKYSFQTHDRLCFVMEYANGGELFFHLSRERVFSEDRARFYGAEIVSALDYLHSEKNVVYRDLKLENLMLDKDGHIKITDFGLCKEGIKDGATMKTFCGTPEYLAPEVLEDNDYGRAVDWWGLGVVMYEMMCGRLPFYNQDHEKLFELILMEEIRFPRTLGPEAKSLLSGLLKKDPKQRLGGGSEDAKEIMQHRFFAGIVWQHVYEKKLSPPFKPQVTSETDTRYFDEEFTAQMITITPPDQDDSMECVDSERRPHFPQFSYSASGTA

IC50 [µM] | Ki [nM] | Compound
2.6 | 1100 | C=c1c(C#N)c2[nH]c(N)c(C#N)c(C)c-2c1=Cc1ccc(-c2ccc(C(=O)O)c(Cl)c2)o1
60.2 |  | C=c1c(C#N)c2[nH]c(N)c(C#N)c(C)c-2c1=Cc1ccc(-c2cccc(C(=O)O)c2)o1 [3-(5-{[(5E)-2-amino-3,7-dicyano-4,6-dimethyl-5H-cyclopenta[b]pyridin-5-ylidene]methyl}furan-2-yl)benzoic acid]
